Test results: PubChem BioAssay (NCI)
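Cells were grown in 96-well plates and exposed to each compound for 48 hours at five concentrations; endpoints were interpolated linearly between bracketing concentrations, or set to the highest concentration if not reached. Abbreviation: GI50, concentration required for 50% inhibition of growth. The concentration for full growth arrest is given as TGI.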

Columns and labels:
Test in all cases: DTP human tumour cell line panel, 48 h
UACC-257 melanoma = test system: UACC-257 melanoma
TK-10 renal = test system: TK-10 renal
MDA-MB-435 = test system: MDA-MB-435
SF-539 CNS = test system: SF-539 CNS
SW-620 colon = test system: SW-620 colon
EKVX NSCLC = test system: EKVX NSCLC
SK-OV-3 ovarian = test system: SK-OV-3 ovarian
LOX IMVI melanoma = test system: LOX IMVI melanoma
MALME-3M melanoma = test system: MALME-3M melanoma
NCI-H522 lung = test system: NCI-H522 lung

SMILES | GI50 (UACC-257 melanoma) [µM] | TGI (UACC-257 melanoma) [µM] | GI50 (TK-10 renal) [µM] | TGI (TK-10 renal) [µM] | GI50 (MDA-MB-435) [µM] | TGI (MDA-MB-435) [µM] | GI50 (SF-539 CNS) [µM] | TGI (SF-539 CNS) [µM] | GI50 (SW-620 colon) [µM] | TGI (SW-620 colon) [µM] | GI50 (EKVX NSCLC) [µM] | TGI (EKVX NSCLC) [µM] | GI50 (SK-OV-3 ovarian) [µM] | TGI (SK-OV-3 ovarian) [µM] | GI50 (LOX IMVI melanoma) [µM] | TGI (LOX IMVI melanoma) [µM] | GI50 (MALME-3M melanoma) [µM] | TGI (MALME-3M melanoma) [µM] | GI50 (NCI-H522 lung) [µM] | TGI (NCI-H522 lung) [µM]
CCOC(=O)c1c(C)n(Cc2ccc(OC)cc2)c2c1cc(O)c1[nH]c3c(c12)CCCC3 | 1.77 | 9.66 | 12.5 | 52.9 | 15.9 | 82 | 2.76 | 7.07 | 3.72 | 13.9 | 4.9 | 52.5 | 9.47 | 51.3 | 3.91 | 16.6 | 2.85 | 18.4 | 1.75 | 3.97
Nc1nccc(-c2c(-c3ccc(F)cc3)ncn2CCCN2CCOCC2)n1 | > 25 | > 25 | > 25 | > 25 | > 25 | > 25 | > 25 | > 25 | > 25 | > 25 | > 25 | > 25 | > 25 | > 25 | > 25 | > 25 | > 25 | > 25 | > 25 | > 25
NCCCCn1c2c(c3ccccc3c1=O)C(=O)c1ccccc1-2 | 0.619 | 1.91 | 0.226 | 1.25 | 0.717 | 2.28 | 0.102 | 0.462 | < 0.0185 | 1.38 | 1.21 | 4.62 | 1.04 | 9.81 | 0.0269 | 0.346 | 0.311 | 1.12 | 0.424 | 2.31
C[C@]12CC[C@@H]3c4ccc(O)cc4C[C@@H](CCCCCCCCCS(=O)CCCC(F)(F)C(F)(F)F)[C@H]3[C@@H]1CC[C@@H]2O (stereo not given in full) | > 100 | > 100 | > 51.8 | > 100 | > 100 | > 100 | > 100 | > 100 | > 100 | > 100 | > 100 | > 100 | > 100 | > 100 | > 100 | > 100 | > 100 | > 100 | > 26.2 | > 100
O=c1[nH]c(=O)n(C2CC(O)C(CS)O2)cc1F (stereo not given) |  | > 100 |  | > 100 |  | > 100 |  | > 90.2 |  | > 100 |  | > 100 |  | > 100 |  | > 100 |  | > 100 |  | > 100
CC12CCCC(CC(=O)c3[nH]c4ccccc4c31)C2 (stereo not given) | 15.2 | > 100 | 14.6 | > 90.4 | 0.255 | 0.949 | 0.698 | 5.75 | 0.426 | > 100 | 1.55 | > 100 | 3.53 | > 76.1 | 0.615 | 20.9 | 0.916 | 35.6 | 0.451 | 5.29
CC(C)(C)C1=CC(=CC=C2C=CN(CCCCCCCCCCCO)C=C2)C=C(C(C)(C)C)C1=O |  | 4.4 |  | 3.67 |  | 3.4 |  | 3.12 |  | 3.08 |  | 5.61 |  | 5.81 |  | 1.69 |  | 3.51 |  | 1.29
COc1ccc(C(=O)/C=C/c2cccnc2Nc2cc(OC)c(OC)c(OC)c2)cc1 | 3.93 | 15 | 1.83 | 5.53 | 0.885 | 12.2 | 1.81 | 5.62 | 0.349 | 1.59 | 5.11 | 19.2 | 4.12 | 16.4 | 0.738 | 2.28 | 6.32 | 20.1 | 0.93 | 2.65
CC(C)CSc1nc(Nc2ccccc2)c(C#N)c(-c2ccc(F)cc2)n1 | 10.3 | 33.3 | 1.61 | 6.33 | 13 | 42.2 | 2.5 | 13.3 | 8.63 | > 100 | 1.73 | 16.5 | 8.13 | 32.5 | 2.98 | 21.4 | 2.27 | 10.6 | 14.4 | 71.4
